Reference: patent US20240116951A1, “HETEROCYCLIC COMPOUNDS AND USES THEREOF” (Kumquat Biosciences Inc., priority 2022, published 2024)

Assays:
Assay type in all cases: binding
[1] = target: T1, KRAS G12S (Homo sapiens, UniProt P01116, G12S); assay: HTRF assay of K-Ras G12S interaction with SOS1 (PPI-HTRF); settings: 5 nM KRAS G12S, read-out: PPI-HTRF-5 nM KRAS G12S
T1 construct: made in house; host or cells: E. coli, e.g. BL21 (DE3)
Method in brief: (§1)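 Read-out: HTRF ratio 665/620 nm (ex 337 nm) after ~10 min or longer. Donor anti-GST-Eu(K) on GST-K-Ras and acceptor anti-6His-XL665 on His-hSOS1, in HEPES pH 7.4 buffer with DTT, BSA and Igepal. Duplicate dilution series from 10 μM down to 0.01 μM gave IC50 values.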

[2] = target: T2, KRAS WT (Homo sapiens, UniProt P01116); assay: HTRF assay of wildtype K-Ras interaction with SOS1 (PPI-HTRF); settings: HTRF, 5 nM KRAS WT; read-out: PPI-HTRF-5 nM KRAS WT
T2 construct: made in house; host or cells: E. coli, e.g. BL21 (DE3)
T2 sequence (P01116 1-188 isoform P01116-2): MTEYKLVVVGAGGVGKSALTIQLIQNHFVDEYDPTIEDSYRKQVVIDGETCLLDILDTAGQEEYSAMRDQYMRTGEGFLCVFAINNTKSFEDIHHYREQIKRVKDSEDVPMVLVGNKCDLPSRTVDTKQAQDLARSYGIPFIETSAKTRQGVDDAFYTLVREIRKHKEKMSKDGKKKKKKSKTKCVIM
Method in brief: as §1

[3] = target: T3, KRAS G12D (Homo sapiens, UniProt P01116, G12D); assay: HTRF assay of K-Ras G12D interaction with SOS1 (PPI-HTRF); settings: HTRF, 5 nM KRAS G12D; read-out: PPI-HTRF-5 nM KRAS G12D
T3 construct: made in house; host or cells: E. coli, e.g. BL21 (DE3)
T3 sequence (P01116 1-188 isoform P01116-2 G12D): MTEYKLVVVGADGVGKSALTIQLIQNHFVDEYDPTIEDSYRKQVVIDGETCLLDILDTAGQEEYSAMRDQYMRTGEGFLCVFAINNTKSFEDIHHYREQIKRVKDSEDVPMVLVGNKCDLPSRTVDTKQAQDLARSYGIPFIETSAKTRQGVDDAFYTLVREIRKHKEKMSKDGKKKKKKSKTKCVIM
Method in brief: as §1

T1 sequence (P01116 1-188 isoform P01116-2 G12S): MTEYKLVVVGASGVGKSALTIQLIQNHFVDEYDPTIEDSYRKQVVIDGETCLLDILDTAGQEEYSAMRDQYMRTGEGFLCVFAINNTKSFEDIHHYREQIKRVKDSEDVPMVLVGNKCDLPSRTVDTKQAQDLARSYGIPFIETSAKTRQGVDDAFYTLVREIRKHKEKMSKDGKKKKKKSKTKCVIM

| SMILES | IC50 [1] [µM] | IC50 [2] [µM] | IC50 [3] [µM] |
| --- | --- | --- | --- |
| Cc1ncn(C(=O)N2CCOCC23CCN(c2nc(OC[C@@]45CCCN4C[C@H](F)C5)nc4c(F)c(-c5ccc(F)c6sc(N)c(C#N)c56)c(Cl)cc24)C3)n1 (stereo partly drawn) [Compound 214, 2-amino-4-(6-chloro-8-fluoro-2-(((2R,7aS)-2-fluorotetrahydro-1H-pyrrolizin-7a(5H)-yl)methoxy)-4-(6-(3-methyl-1H-1,2,4-triazole-1-carbonyl)-9-oxa-2,6-diazaspiro[4.5]decan-2-yl)quinazolin-7-yl)-7-fluorobenzo[b]thiophene-3-carbonitrile] | < 5 | < 5 | < 5 |
| C[C@H](Oc1nc(N2CCCC3(CCN3C(=O)c3ccnn3C)C2)c2cc(Cl)c(-c3ccc(F)c4sc(N)c(C#N)c34)c(F)c2n1)[C@@H]1CCCN1C (stereo partly drawn) [Compound 282, 2-amino-4-(6-chloro-8-fluoro-4-(1-(1-methyl-1H-pyrazole-5-carbonyl)-1,6-diazaspiro[3.5]nonan-6-yl)-2-((S)-1-((S)-1-methylpyrrolidin-2-yl)ethoxy)quinazolin-7-yl)-7-fluorobenzo[b]thiophene-3-carbonitrile] | < 5 | < 5 | < 5 |
| CN1CCC[C@H]1COc1nc2c(c(N3CCC4(CCN4C(=O)n4cncn4)C3)n1)CCN(c1cccc3cccc(Cl)c13)C2 (stereo partly drawn) [Compound 245, (6-(7-(8-chloronaphthalen-1-yl)-2-(((S)-1-methylpyrrolidin-2-yl)methoxy)-5,6,7,8-tetrahydropyrido[3,4-d]pyrimidin-4-yl)-1,6-diazaspiro[3.4]octan-1-yl)(1H-1,2,4-triazol-1-yl)methanone] | > 5 | > 5 | > 5 |
| N#Cc1c(N)sc2c(F)ccc(-c3c(Cl)cc4c(N5CCCCC6(CCN6C(=O)n6cncn6)C5)nc(OC[C@@]56CCCN5C[C@H](F)C6)nc4c3F)c12 (stereo partly drawn) [Compound 350] | < 5 | < 5 | < 5 |
| C#Cc1c(F)ccc2cc(O)cc(-c3ncc4c(N5CCC6(CCN6)C5)nc(OC[C@@]56CCCN5C[C@H](F)C6)nc4c3F)c12 (stereo partly drawn) [Compound 268, 5-ethynyl-6-fluoro-4-(8-fluoro-2-(((2R,7aS)-2-fluorotetrahydro-1H-pyrrolizin-7a(5H)-yl)methoxy)-4-(1,6-diazaspiro[3.4]octan-6-yl)pyrido[4,3-d]pyrimidin-7-yl)naphthalen-2-ol] | < 5 | < 5 | < 5 |
| C[C@H]1N(c2nc(OC[C@@]34CCCN3C[C@H](F)C4)nc3c(F)c(-c4ccc(F)c5sc(N)c(C#N)c45)c(Cl)cc23)CC[C@@]12CCN2C(=O)n1cnc(Cl)n1 [Compound 263, 2-amino-4-(6-chloro-4-((4R,5R)-1-(3-chloro-1H-1,2,4-triazole-1-carbonyl)-5-methyl-1,6-diazaspiro[3.4]octan-6-yl)-8-fluoro-2-(((2R,7aS)-2-fluorotetrahydro-1H-pyrrolizin-7a(5H)-yl)methoxy)quinazolin-7-yl)-7-fluorobenzo[b]thiophene-3-carbonitrile] | < 5 | < 5 | < 5 |
| C[C@H](Oc1nc(N2CCCC3(CCN3C(=O)n3cncn3)C2)c2cc(Cl)c(-c3ccc(F)c4sc(N)c(C#N)c34)c(F)c2n1)[C@@H]1CCCN1C (stereo partly drawn) [Compound 201, 4-(4-(1-(1H-1,2,4-triazole-1-carbonyl)-1,6-diazaspiro[3.5]nonan-6-yl)-6-chloro-8-fluoro-2-((S)-1-((S)-1-methylpyrrolidin-2-yl)ethoxy)quinazolin-7-yl)-2-amino-7-fluorobenzo[b]thiophene-3-carbonitrile] | < 5 | < 5 | < 5 |
| N#Cc1c(N)sc2c(F)ccc(-c3c(Cl)cc4c(N5CCC6(CCN6C(=O)n6ccnn6)C5)nc(OC[C@@]56CCCN5C[C@H](F)C6)nc4c3F)c12 (stereo partly drawn) [Compound 248, 4-(4-(1-(1H-1,2,3-triazole-1-carbonyl)-1,6-diazaspiro[3.4]octan-6-yl)-6-chloro-8-fluoro-2-(((2R,7aS)-2-fluorotetrahydro-1H-pyrrolizin-7a(5H)-yl)methoxy)quinazolin-7-yl)-2-amino-7-fluorobenzo[b]thiophene-3-carbonitrile] | < 5 | < 5 | < 5 |
| N#Cc1c(N)sc2c(F)ccc(-c3c(Cl)cc4c(N5CC6(CCN6C(=O)n6cncn6)CC5COC(F)F)nc(OC[C@@]56CCCN5C[C@H](F)C6)nc4c3F)c12 (stereo partly drawn) [Compound 326, 2-amino-4-(6-chloro-4-(7-((difluoromethoxy)methyl)-1-(1H-1,2,4-triazole-1-carbonyl)-1,6-diazaspiro[3.4]octan-6-yl)-8-fluoro-2-(((2R,7aS)-2-fluorotetrahydro-1H-pyrrolizin-7a(5H)-yl)methoxy)quinazolin-7-yl)-7-fluorobenzo[b]thiophene-3-carbonitrile] | < 5 | < 5 | < 5 |
| N#Cc1c(N)sc2c(F)ccc(-c3c(Cl)cc4c(N5CCC6(CCCCN6C(=O)C6CC6(F)F)C5)nc(OC[C@@]56CCCN5C[C@H](F)C6)nc4c3F)c12 (stereo partly drawn) [Compound 240, 2-amino-4-(6-chloro-4-(6-(2,2-difluorocyclopropane-1-carbonyl)-2,6-diazaspiro[4.5]decan-2-yl)-8-fluoro-2-(((2R,7aS)-2-fluorotetrahydro-1H-pyrrolizin-7a(5H)-yl)methoxy)quinazolin-7-yl)-7-fluorobenzo[b]thiophene-3-carbonitrile] | < 5 | < 5 | < 5 |
| N#Cc1c(N)sc2c(F)ccc(-c3c(Cl)cc4c(N5CCC6(CCCN6C(=O)[C@@H]6N[C@H]6C6CC6)CC5)nc(OC[C@@]56CCCN5C[C@H](F)C6)nc4c3F)c12 [Compound 295, 2-amino-4-(6-chloro-4-(1-((2R,3S)-3-cyclopropylaziridine-2-carbonyl)-1,8-diazaspiro[4.5]decan-8-yl)-8-fluoro-2-(((2R,7aS)-2-fluorotetrahydro-1H-pyrrolizin-7a(5H)-yl)methoxy)quinazolin-7-yl)-7-fluorobenzo[b]thiophene-3-carbonitrile] | < 5 | < 5 | < 5 |
| C[C@H](Oc1nc(N2CCC3(CCN3C(=O)c3ccnn3C)C2)c2cc(Cl)c(-c3ccc(F)c4sc(N)c(C#N)c34)c(F)c2n1)[C@@H]1CCCN1C (stereo partly drawn) [Compound 274, 2-amino-4-(6-chloro-8-fluoro-4-(1-(1-methyl-1H-pyrazole-5-carbonyl)-1,6-diazaspiro[3.4]octan-6-yl)-2-((S)-1-((S)-1-methylpyrrolidin-2-yl)ethoxy)quinazolin-7-yl)-7-fluorobenzo[b]thiophene-3-carbonitrile] | < 5 | < 5 | < 5 |
| N#Cc1c(N)sc2c(F)ccc(-c3c(Cl)cc4c(N5CC[C@@]6(CCN6C(=O)n6cnc(Cl)n6)C5)nc(OC[C@@]56CCCN5C[C@H](F)C6)nc4c3F)c12 (atropisomer, axis not shown; (aS)) [Compound 225, 2-amino-4-((R)-6-chloro-4-((R)-1-(3-chloro-1H-1,2,4-triazole-1-carbonyl)-1,6-diazaspiro[3.4]octan-6-yl)-8-fluoro-2-(((2R,7aS)-2-fluorotetrahydro-1H-pyrrolizin-7a(5H)-yl)methoxy)quinazolin-7-yl)-7-fluorobenzo[b]thiophene-3-carbonitrile] | < 5 | < 5 | < 5 |
